Source: patent US10562890B2, “Cancer therapeutics” (UNIVERSITY OF VIRGINIA PATENT FOUNDATION, priority 2014, dated 2020)
In brackets after ≈: the same amount, converted by molar mass. Read-outs that look alike come from different tables or passages of the source.

Tests used:
[1] = previous work, Illendula et al. Science 2015; cited from earlier work
11 leukemia cell lines = assay: Viability of a panel of 11 leukemia cell lines; assay type: cell-based; details: 48 hours of treatment
From the text: Compounds Al-4-88, Al-4-57, Al-10-47, Al-10-104, and Al-14-91 were screened against a panel of 11 leukemia cell lines with varying genotypes.
The viability is represented as the percent DAPI negative cells relative to DMSO control. Each symbol/color in the graphs of FIG. 4 represent an individual cell line. The symbol represents the mean of independent replicates and the error bars represent the SEM. The table indicates the morphology, type of leukemia, and known mutations for each of the 11 cell lines.

[2] = molecular target: CBFβ-SMMHC binding to the RUNX1 Runt domain; details: U.S. Pat. No. 8,748,618; read-out: IC50, binding of CBF-SMMHC to the RUNX1 Runt domain; cited from earlier work
[3] = molecular target: CBFβ binding to the RUNX1 Runt domain (Homo sapiens (Human), UniProt Q13951); assay: FRET assay, inhibition of CBFβ binding to the RUNX1 Runt domain; details: for IC50: inhibition of wild-type CBFβ binding to the RUNX1 Runt domain, NA = not active; for activity in FRET assay (structure-activity relationship, in words): relative to Al-4-57 or parent compounds
Chain of CBFβ binding to the RUNX1 Runt domain (Q13951 1-141): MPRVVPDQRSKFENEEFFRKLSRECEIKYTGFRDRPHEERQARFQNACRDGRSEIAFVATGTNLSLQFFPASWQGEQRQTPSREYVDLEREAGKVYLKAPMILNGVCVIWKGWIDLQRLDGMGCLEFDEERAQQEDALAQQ
From the text: Fluorescence Resonance Energy Transfer (FRET) Assay:
As described in U.S. Pat. No. 8,748,618 and published PCT application WO2010/132684, a FRET assay can be used to effectively monitor the inhibition of CBF binding to the Runt domain of RUNX proteins (as well as for CBFβ-SMMHC binding to the Runt domain of RUNX proteins). For the assay, the green fluorescent protein derivative Cerulean is fused to the N-terminus of the Runt domain and the green fluorescent protein derivative Venus to the N-terminus of CBFβ (Gorczynski, M. J., J. Grembecka, et al. (2007), “Allosteric inhibition of the protein-protein interaction between the leukemia-associated proteins Runx1 and CBFbeta.” Chem Biol 14(10): 1186-97), or to CBFβ-SMMHC (Illendula, A. et al. Chemical biology. A small-molecule inhibitor of the aberrant transcription factor CBFbeta-SMMHC delays leukemia in mice. Science 347, 779-784, doi:10.1126/science.aaa0314 (2015)). The ratio of the emission intensities at 525 nm and 474 nm, measured after excitation at 433 nm, was used as the readout in this assay. The dynamic range for the FRET assay was determined by adding a 30-fold excess of untagged CBFβ (or CBFβ-SMMHC) to the assay and the associated change in the FRET ratio was defined as 100% inhibition.

[4] = tested on: BEAS-2B normal lung cells; assay: MTT growth assay, BEAS-2B cells; assay type: cell-based; details: 10 μM, 72 hrs
Procedure: (§1) Activity of Al-10-104 was tested using several lung cancer cell lines and one immortalized, non-transformed lung cell line. […] Data for the squamous cell carcinoma of the lung cell line H520 and the immortalized normal lung epithelial cell line BEAS-2B are shown in FIG. 10.
(§2) H520 cells were cultured in RPMI 1640 medium, supplemented with fetal bovine serum (10% final concentration), Hepes (1%), and sodium priruvate (1%). The MTT assay used 4×10^5/ml cells. BEAS-2B cells were cultured in DMEM medium with fetal bovine serum (10% final concentration). The MTT assay for the BEAS-2B cell line was performed using 3.5×10^5/ml cells.
(§3) Al-4-88 had no effect on either cell line.

H520 lung cancer cells = assay: MTT growth assay, H520 cells; assay type: cell-based; details: H520, 10 μM, 72 hrs
Procedure: as §1, §2, §3

[5] = tested on: T-ALL cell lines Jurkat, HBP-ALL, Loucy, and KOPTK1; assay: Proliferation of T-ALL cell lines; assay type: cell-based, human
MLL-AF4 leukemia cells = assay: Cell death of MLL-AF4 leukemia cells; assay type: cell-based, human
[6] = molecular target: binding of CBFβ to RUNX1 in SEM cells (Homo sapiens (Human), UniProt Q13951); assay: Co-immunoprecipitation of CBFβ with RUNX1 in SEM cells; assay type: cell-based; details: 10 μM, 6 hours
Chain of binding of CBFβ to RUNX1 in SEM cells (Q13951 whole entry): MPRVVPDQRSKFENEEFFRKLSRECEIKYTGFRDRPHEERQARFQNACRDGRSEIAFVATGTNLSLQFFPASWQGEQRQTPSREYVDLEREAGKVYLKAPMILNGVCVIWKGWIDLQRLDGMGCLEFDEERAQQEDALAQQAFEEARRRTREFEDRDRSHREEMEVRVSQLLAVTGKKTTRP
Procedure: To test whether the wild-type CBFβ Inhibitors can disrupt the binding of CBFβ to RUNX1 in cells, co-immunoprecipitation experiments were performed in the SEM cell line. Co-immunoprecipitation assays of lysates from […] SEM cells were treated with Al-4-88^1, Al-10-47, Al-10-104, Al-12-126 and Al-14-91 at 10 μM for 6 hours. RUNX1-bound CBFβ protein levels and immunoprecipitated RUNX1 are shown on the top panel of FIG. 2A. Quantification of RUNX1 bound CBFβ is shown on the bottom graph.

[7] = Aqueous solubility in 0.25% DMSO by NMR spectroscopy; assay type: physicochemical; details: kinetic from dmso stock
Procedure: Al-10-104, Al-12-126, and Al-14-91 were all soluble at concentrations above 100 μM. […] As the Runt domain is highly conserved among all three RUNX family members, we would expect to see similar effects on binding to RUNX2 or RUNX3. Therefore, the action of the inhibitors will likely affect the activity of all three RUNX family members.

[8] = Sedative effects and tolerability in mice after IP administration; assay type: in vivo; details: HCl salts with Captisol, IP at 100 mg/kg
From the text: “NA” indicates not active. […] Reasoning that this effect depended on the ability of the compound to cross the blood brain barrier (BBB), compounds Al-12-126 and Al-14-91 have appended morpholine ring substituents to the 5 position of the pyridine ring to increase the polarity of the compounds and thereby limit BBB penetration.

MCF10A-5E cells = assay: Multiacini formation in 3D culture of MCF10A-5E cells; assay type: cell-based; details: shRUNX1 or control cells, 3D culture 10-11 days, compared to carrier control or Al-4-88
From the text: CBFβ inhibitors altered acinar morphogenesis of the basal-like (triple negative) breast epithelial cells and blocked survival of basal-like breast cancer cells in 3D organotypic culture. To evaluate whether CBFβ inhibition would influence the multicellular organization of basal-like breast epithelia, 3D culture of MCF10A-5E cells was used. Knockdown of RUNX1 in these cells delayed proliferation arrest and promoted the formation of nonspherical acini, indicating a role for RUNX1 during morphogenesis.
The multiacini resulting from CBFβ inhibition were not radially symmetric, thereby arguing against a general defect in cell polarity or proliferation arrest. Instead, the inhibitors appeared to be initiating a nascent branching program that is reminiscent of when TGFβ-family signaling is impaired.
FIG. 9A: MCF10A-5E cells stably expressing shRUNX1 or shGFP control were grown in 3D culture for 10-11 days with the indicated compounds and imaged by Brightfield microscopy. The total number of multiacini per chamber was counted and scaled to the shGFP DMSO control. Data are shown as the mean±SEM of eight independent cultures.

[9] = aqueous, 0.25% DMSO, NMR spectroscopy, read-out: aqueous solubility

Q: With COc1ccc2[nH]c(-c3ccccn3)nc2c1 [Al-4-57] as the compound, how does the half-life in mice [1] read?
A: Its half-life in mice is “short half-life”.

Q: And the “percent viability (DAPI negative cells relative to DMSO)” value (11 leukemia cell lines)?
A: Its value is “only very weak activity”.

Q: And the IC50 [2]?
A: Its IC50 is 22 µM.

Q: What about the IC50 [3] of the same compound?
A: The IC50 was 34 µM.

Q: Which results are given for c1ccc(-c2nc3ccccc3[nH]2)nc1 [Al-4-88, reference compound]?
A: cell growth (MTT assay) [4]: no effect; cell growth (MTT assay) (H520 lung cancer cells): no effect; proliferation [5]: did not have such an effect; percent viability (DAPI negative cells relative to DMSO) (11 leukemia cell lines): No activity

Q: Which cell death (MLL-AF4 leukemia cells) does the source give for FC(F)(F)Oc1ccc2[nH]c(-c3ccccn3)nc2c1 [Al-10-47] here?
A: Its cell death is “induced cell death”.

Q: What about the “RUNX1-bound CBFβ (co-immunoprecipitation)” value [6] of the same compound?
A: The value was “only a modest effect”.

Q: What about the solubility [7] of the same compound?
A: Its solubility is 0.44 µM (≈ 0.123 µg/mL).

Q: And the “percent viability (DAPI negative cells relative to DMSO)” value (11 leukemia cell lines)?
A: The value was “significant inhibition of the majority of the cell lines”.

Q: And the IC50 [3]?
A: The IC50 was 3.19 ± 0.5 µM.

Q: With COc1cnc(-c2nc3cc(OC(F)(F)F)ccc3[nH]2)c(OC)c1 [Al-12-16] as the compound, how does the IC50 [3] read?
A: Its IC50 is 1.69 ± 0.18 µM.

Q: With FC(F)(F)Oc1ccc2[nH]c(-c3ccc(OCCN4CCOCC4)cn3)nc2c1 [Al-12-126] as the compound, how does the “RUNX1-bound CBFβ (co-immunoprecipitation)” value [6] read?
A: The value was “reduction in binding”.

Q: What about the sedative effects [8] of the same compound?
A: The sedative effects was “did not induce the sedative effects”.

Q: And the tolerability [8]?
A: Its tolerability is “well-tolerated”.

Q: And the solubility [7, 9]?
A: The solubility was greater than 100 µM.

Q: What about the IC50 [3] of the same compound?
A: The IC50 was 8.91 ± 1.3 µM.

Q: For O=C(O)c1cccnc1-c1nc2cc(OC(F)(F)F)ccc2[nH]1 [Al-12-150], which IC50 [3] is on record?
A: The IC50 was 48.9 ± 1.6 µM.

Q: With CN(C)c1cccnc1-c1nc2cc(OC(F)(F)F)ccc2[nH]1 [Al-14-18] as the compound, how does the IC50 [3] read?
A: Its IC50 is 4.97 ± 0.27 µM.

Q: For FC(F)(F)Oc1ccc2[nH]c(-c3ncccc3OCCN3CCOCC3)nc2c1 [Al-14-55], which IC50 [3] is on record?
A: The IC50 was 4.83 ± 0.32 µM.

Q: With COc1ccnc(-c2nc3cc(OC(F)(F)F)ccc3[nH]2)c1OC [Al-14-72] as the compound, how does the IC50 [3] read?
A: The IC50 was 1.72 ± 0.23 µM.

Q: Which results are given for COc1cc(OCCN2CCOCC2)cnc1-c1nc2cc(OC(F)(F)F)ccc2[nH]1 [Al-14-91]?
A: RUNX1-bound CBFβ (co-immunoprecipitation) [6]: reduction in binding; formation of multiacinar structures (MCF10A-5E cells): dramatic increase; sedative effects [8]: did not induce the sedative effects; tolerability [8]: well-tolerated; solubility [7, 9]: > 100 µM; percent viability (DAPI negative cells relative to DMSO) (11 leukemia cell lines): significant inhibition of the majority of the cell lines; IC50 [3]: 2.97 ± 0.53 µM

Q: With COc1ccc2[nH]c(-c3ccccc3)nc2c1 [Compound 2a, 5-methoxy-2-phenyl-1H-benzo[d]imidazole] as the compound, how does the “activity in FRET assay (structure-activity relationship, in words)” value (shortened to “activity in FRET assay”) [3] read?
A: Its value is “complete loss of activity”.

Q: Which “activity in FRET assay” value [3] does the source give for COc1ccc2[nH]c(-c3ccco3)nc2c1 [Compound 2b, 2-(furan-2-yl)-5-methoxy-1H-benzo[d]imidazole] here?
A: The value was “complete loss of activity”.

Q: Which “activity in FRET assay” value [3] does the source give for c1ccc(-c2nc3ccccc3[nH]2)nc1 [Compound 3a, 2-(pyridin-2-yl)-1H-benzo[d]imidazole] here?
A: The value was “complete loss of activity”.

Q: Which IC50 [3] does the source give for CCOc1ccc2[nH]c(-c3ccccn3)nc2c1 [Compound 3b, 5-ethoxy-2-(pyridin-2-yl)-1H-benzo[d]imidazole] here?
A: Its IC50 is no less than 34.3 µM.

Q: With Fc1ccc2[nH]c(-c3ccccn3)nc2c1 [Compound 3c, 5-fluoro-2-(pyridin-2-yl)-1H-benzo[d]imidazole] as the compound, how does the IC50 [3] read?
A: The IC50 was no less than 34.3 µM.

Q: Which “activity in FRET assay” value [3] does the source give for Cc1ccc2[nH]c(-c3ccccn3)nc2c1 [Compound 3d, 5-methyl-2-(pyridin-2-yl)-1H-benzo[d]imidazole] here?
A: Its value is “loss of activity”.

Q: For FC(F)(F)c1ccc2[nH]c(-c3ccccn3)nc2c1 [Compound 3f, 2-(pyridin-2-yl)-5-(trifluoromethyl)-1H-benzo[d]imidazole], which “activity in FRET assay” value [3] is on record?
A: Its value is “loss of activity”.

Q: Which IC50 [3] does the source give for COc1cccc2[nH]c(-c3ccccn3)nc12 [Compound 4a, 4-methoxy-2-(pyridin-2-yl)-1H-benzo[d]imidazole] here?
A: Its IC50 is no less than 34.3 µM.

Q: What about the “activity in FRET assay” value [3] of the same compound?
A: The value was “reduced activity”.

Q: For COc1ccc2[nH]c(-c3cccc(OC)n3)nc2c1 [Compound 4g, 5-methoxy-2-(6-methoxypyridin-2-yl)-1H-benzo[d]imidazole], which “activity in FRET assay” value [3] is on record?
A: Its value is “inactive”.

Q: Which “activity in FRET assay” value [3] does the source give for COc1ccc2[nH]c(-c3cccc(C)n3)nc2c1 [Compound 4h, 5-methoxy-2-(6-methylpyridin-2-yl)-1H-benzo[d]imidazole] here?
A: The value was “inactive”.
